The values below are quoted from earlier work in patent US8420699B1, “Composition and methods of treatment using deionized and ozonated solution” (priority 2002, dated 2013).

As for `O=[O+][O-]` [ozone], the half-life of ozone (at 68° F.) was 45 min. The “concentrated effectiveness relative to initial value” (in two hours after generation) was 16 % of its initial value.
